From patent US20040197268A1, “Method of imaging amyloid deposits using substituted rhodanine derivatives” (priority 1999, published 2004)
pIC50: −log10 of the molar value. Where “and” joins values, the source holds several entries; their conditions need not be identical. Equal entries are not always repeated.

Tests used:
Aβ(1-40) [1] = molecular target: T1, Aβ(1-40) (Homo sapiens, UniProt P05067); test: BASSR (Beta-Amyloid Self-Seeding Radioassay), inhibitors of self-seeded amyloid fibril growth; assay type: biochemical; settings: 30 μM soluble Aβ(1-40) + 125I-labeled Aβ(1-40), pH 7.5, 37° C., 3 to 5 hours, filtration
T1 construct: Soluble Aβ(1-40) peptide (Bachem, Torrance, Calif.); purchased Bachem, Torrance, Calif
Method in brief: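 Self-seeding growth of fibrils from 30 μM soluble human Aβ(1-40) plus ^125I-labeled Aβ(1-40) was run in 50 mM sodium phosphate pH 7.5, 100 mM NaCl, 1 M urea, with compound as serial 3-fold dilutions from 100 μM final, DMSO <1%. After 10 min on ice and 3 to 5 hours at 37° C., fibrils were filter-collected and radioactivity counted.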

Aβ(1-40) [2] = molecular target: T1, Aβ(1-40); test: BASST (Beta-Amyloid Self-Seeding, ThioflavinT), inhibitors of self-seeded amyloid fibril growth; assay type: biochemical; settings: 30 μM soluble Aβ(1-40), pH 7.5, 37° C., 3 to 5 hours, thioflavin T fluorescence
Method in brief: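 Self-seeded soluble Aβ(1-40) at 30 μM was mixed on ice with compound (3-fold dilutions, top 100 μM final; DMSO <1%) in pH 7.5 phosphate buffer with 1 M urea. After 10 min on ice, mixtures were incubated 3 to 5 hours at 37° C. Fibril growth was read as thioflavin T fluorescence (ex 440/em 485).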

Aβ(1-42) = molecular target: T2, Aβ(1-42) (Homo sapiens, UniProt P05067); test: BATYM Assay (Aβ(1-42) aggregation, Thioflavin T fluorescence); assay type: biochemical; settings: Aβ 1-42 final concentration 100 μM, PBS pH 7.4, 37° C., 1 day, ThT fluorescence
T2 construct: Required Aβ(1-42)(California Peptide) was dried from its hexafluoroisopropanol (HFIP) stock solution; purchased California Peptide
Method in brief: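 HFIP-dried Aβ(1-42), redissolved in DMSO/PBS pH 7.4 and filtered, was incubated at 100 μM final with compound (2% DMSO) for 1 day at 37° C. Aggregation read by ThT (30 μM, glycine-NaOH pH 8.5) fluorescence, ex 440/em 485 nm; inhibition corrected for compound blank, IC50 by curve fit, two experiments in triplicate.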

[3] = molecular target: T3, beta amyloid peptide Aβ(1-40) (Homo sapiens, UniProt P05067); test: BAPA (Beta-Amyloid Peptide Aggregation), pH 6.0; assay type: biochemical; settings: Aβ(1-40) 33 μM, pH 6.0, 2 to 4 hours at room temperature, filtration
T3 construct: 0.5 mg/mL AP (140) peptide in 20% HFIP+0.1 μL/assay radioiodinated ^125I Aβ(1-40)
Method in brief: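 HFIP-monomerised Aβ(1-40) with ^125I Aβ(1-40) tracer in 50 mM phosphate pH 6.0, DMSO <1%, incubated 2 to 4 h at room temperature. Aggregates collected by 0.2 μm filtration and counted by scintillation, background-corrected.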

T3 sequence (P05067 672-711 limits assumed): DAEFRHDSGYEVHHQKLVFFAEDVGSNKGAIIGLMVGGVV
T1 sequence (P05067 672-711 limits assumed): as above
T2 sequence (P05067 672-713 limits assumed): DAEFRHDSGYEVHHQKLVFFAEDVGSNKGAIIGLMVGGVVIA

Row | SMILES | pIC50 (Aβ(1-40) [1]) | pIC50 (Aβ(1-40) [2]) | pIC50 (Aβ(1-42)) | pIC50 [3] | melting point [°C]
1 | O=C1/C(=C/c2ccc(N3CC[C@@H]4CCCC[C@H]4C3)cc2)SC(=S)N1Cc1nnn[nH]1 [Example 23, (Z) 5-[(4aS,8aR)-4-(Octahydro-isoquinolin-2-yl)-benzylidene]-3-(1H-tetrazol-5-ylmethyl)-2-thioxo-thiazolidin-4-one] | < 4.00 | 6.00 and 6.30 | 5.48 | 4.52 | 247
2 | CCCCCCN(C)c1ccc(/C=C2\SC(=S)N(CC(=O)NC)C2=O)cc1 [Example 4, (Z) 2-{5-[4(Hexyl-methyl-amino)-benzylidene]-4-oxo-2-thioxo-thiazolidin-3-yl}-N-methyl-acetamide] | < 4.00 | 5.52 | 5.08 | 5.22 | 228 to 230
3 | CCCCCN(CCCCC)c1ccc(/C=C2\SC(=S)N(CC(=O)NS(C)(=O)=O)C2=O)cc1 [Example 6, (Z) N-{5-[4-(Dipentylamino-benzylidene)4-oxo-2-thioxo-thiazolidin-3-yl]-acetyl}-methanesulfonamide] | < 4.00 | 4.55 | 5.53 | 5.52 | 134 to 138
4 | CCCCN(CCCC)c1ccc(/C=C2\SC(=S)N(CC(=O)NS(=O)(=O)C(F)(F)F)C2=O)cc1 [Example 18, (Z) N-{[5-(4-Dibutylamino-benzylidene)-4-oxo-2-thioxo-thiazolidin-3-yl]-acetyl}-C,C,C-trifluoro-methanesulfonamide] | 5.30 | 6.22 | 5.73 | 3.91 | 228 to 230
5 | CCCC1CCN(c2ccc(/C=C3\SC(=S)N(CC(=O)NS(=O)(=O)c4ccc(F)cc4)C3=O)cc2)CC1 [Example 39, (Z) 4-Fluoro-N-(2-{4-oxo-5-[4-(4-propyl-piperidin-1-yl)-benzylidene]-2-thioxo-thiazolidin-3-yl}-acetyl)-benzenesulfonamide] | < 4.00 and 4.68 | 6.00 and 7.00 | 5.54 | 4.43 | 197
6 | CCCCN(CCCC)c1ccc(/C=C2\SC(=S)N(CCS(=O)(=O)NC(=O)c3ccccc3)C2=O)cc1 [Example 28, (Z) 2-[5-(4-Dibutylamino-benzylidene)-4-oxo-2-thioxo-thiazolidin-3-yl]-ethanesulfonic acid benzoylamide] | 4.68 | 6.52 | 5.66 | 4.16 | 183
7 | CCCC1CCN(c2ccc(/C=C3\SC(=S)N(Cc4cc(=O)c(O)co4)C3=O)cc2)CC1 [Example 34, (Z) 3-(5-Hydroxy-4-oxo-4H-pyran-2-ylmethyl)-5-[4-(4-propyl-piperidin-1-yl)-benzylidene]-2-thioxo-thiazolidin-4-one] | < 4.00 | 5.70 | 5.62 | < 4.22 | 253
